Columns and labels:
ACK1 (110-489) = target: T1, ACK1 (110-489) (Homo sapiens, UniProt Q07912); assay: ACK1 Activity Assay (AlphaScreen, PYK2-derived peptide); format: biochemical; conditions: Average of ACK1(110-489), IC50, AlphaScreen (Pyk2); read-out: ACK1 (110-489) IC50
T1 construct: ACK1 110-489 (12.5 μl) were added to each well
Description: The extent of peptide phosphorylation was determined by using acceptor beads conjugated to phosphotyrosine antibody that recognizes the phosphorylated peptide and donor beads conjugated to streptavidin that binds to the biotin on the peptide. Excitation of the donor beads converted ambient oxygen to excited singlet oxygen which when in close proximity to acceptor beads, reacted with acceptor beads where the signal was amplified.
Test inhibitors and controls (N-(2,6-dimethylphenyl)-4-(2-ethoxyphenoxy)-2-[(4-piperazin-1-ylphenyl)amino]pyrimidine-5-carboxamide) were prepared in 10% DMSO at 10× the desired final concentration. […] After a 20-min incubation at room temperature, the kinase reaction was initiated by the addition of 10 μl of PYK2/ATP mixture. […] The plates were incubated for 60 min at room temperature. The reaction was stopped by the addition of 10 μl stop/detection mixture which contains EDTA (final concentration is 10 mM), AlphaScreen™ Streptavidin Donor beads (final concentration is 500 ng/well) and AlphaScreen™ Phospho-tyrosine (P-Tyr-100) Acceptor beads (final concentration is 500 ng/well) were diluted in assay buffer. This reagent addition step was performed in the dark because the AlphaScreen™ beads are light-sensitive. The plate was incubated for 60 min at room temperature in the dark and the plates were read on the Perkin Elmer Envision Multilabel plate reader ([…]).

T1 sequence (Q07912 110-489, species assumed): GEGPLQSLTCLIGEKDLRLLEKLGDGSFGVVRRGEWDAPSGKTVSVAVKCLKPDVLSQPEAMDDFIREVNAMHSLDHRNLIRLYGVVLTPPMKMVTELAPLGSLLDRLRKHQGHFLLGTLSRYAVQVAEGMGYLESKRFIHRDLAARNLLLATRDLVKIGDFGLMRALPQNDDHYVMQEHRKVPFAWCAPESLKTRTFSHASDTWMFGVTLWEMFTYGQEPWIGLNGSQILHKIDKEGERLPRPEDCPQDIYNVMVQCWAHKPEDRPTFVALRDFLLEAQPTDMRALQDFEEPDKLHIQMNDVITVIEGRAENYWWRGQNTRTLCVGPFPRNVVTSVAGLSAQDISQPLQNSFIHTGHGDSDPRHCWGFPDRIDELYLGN

Compound | IC50 (ACK1 (110-489)) [nM] | melting point [°C]
CN(C)CCCC(=O)Nc1ccc(Nc2ncnc3[nH]cc(C(=O)c4ccccc4)c23)cc1 [4-(dimethylamino)-N-(4-{[5-(phenylcarbonyl)-7H-pyrrolo[2,3-d]pyrimidin-4-yl]amino}phenyl)butanamide] | 2570 | 
COCCCC(=O)Nc1ccc(Nc2ncnc3[nH]cc(C(=O)c4ccccc4)c23)cc1 [4-methoxy-N-(4-{[5-(phenylcarbonyl)-7H-pyrrolo[2,3-d]pyrimidin-4-yl]amino}phenyl)butanamide] | 1020 | 
O=C(c1ccccc1)c1c[nH]c2ncnc(Nc3ccc4cc[nH]c4c3)c12 [(4-((1H-indol-6-yl)amino)-7H-pyrrolo[2,3-d]pyrimidin-5-yl)(phenyl)methanone] | 61500 | 
O=C(CCc1cccnc1)Nc1ccc(Nc2ncnc3[nH]cc(C(=O)c4ccccc4)c23)cc1 [N-(4-{[5-(phenylcarbonyl)-7H-pyrrolo[2,3-d]pyrimidin-4-yl]amino}phenyl)-3-pyridin-3-ylpropanamide] | 4390 | 
CNC(=O)c1cccc(Nc2ncnc3[nH]cc(C(=O)c4cccc(F)c4)c23)c1 [drawing 244, 3-{[5-(3-fluorobenzoyl)-7H-pyrrolo[2,3-d]pyrimidin-4-yl]amino}-N-methylbenzamide] | 914 | 
COC(=O)c1cc(NC(=O)CNC(C)=O)cc(Nc2ncnc3[nH]cc(C(=O)c4ccccc4)c23)c1 [drawing 277, methyl 3-[(N-acetylglycyl)amino]-5-{[5-(phenylcarbonyl)-7H-pyrrolo[2,3-d]pyrimidin-4-yl]amino}benzoate] | 2000 | 
CCNC(=O)Nc1cccc(Nc2ncnc3[nH]cc(C(=O)c4ccccc4)c23)c1 |  | 183 to 185
COc1ccc(Nc2ncnc3[nH]cc(C(=O)c4ccccc4)c23)c(OC)c1 [(4-((2,4-dimethoxy-phenyl)amino)-7H-pyrrolo[2,3-d]pyrimidin-5-yl)(phenyl)methanone] | 4530 | 
CC(=O)Nc1cccc(Nc2ncnc3c2c(C(=O)c2ccccc2)cn3C)c1 |  | 140 to 142
CC(=O)NCCC(=O)Nc1ccc(Nc2ncnc3[nH]cc(C(=O)c4ccccc4)c23)cc1 [3-acetamido-N-(4-((5-benzoyl-7H-pyrrolo[2,3-d]pyrimidin-4-yl)amino)phenyl)propanamide] | 776 | 
CN(C)CC(=O)Nc1ccc(Nc2ncnc3[nH]cc(C(=O)c4ccccc4)c23)cc1 [N-(4-((5-benzoyl-7H-pyrrolo[2,3-d]pyrimidin-4-yl)amino)phenyl)-2-(dimethylamino)acetamide] | 241 | 
CNC(=O)c1cccc(Nc2ncnc3[nH]cc(C(=O)c4ccccc4C)c23)c1 [drawing 242, N-methyl-3-{[5-(2-methylbenzoyl)-7H-pyrrolo[2,3-d]pyrimidin-4-yl]amino}benzamide] | 189 | 
O=C(Cn1ccnc1)Nc1ccc(Nc2ncnc3[nH]cc(C(=O)c4ccccc4)c23)cc1 [2-(1H-imidazol-1-yl)-N-(4-{[5-(phenylcarbonyl)-7H-pyrrolo[2,3-d]pyrimidin-4-yl]amino}phenyl)acetamide] | 798 | 
CCOC(=O)c1cccc(Nc2ncnc3[nH]cc(C(=O)c4ccccc4)c23)c1 |  | 256 to 258
Cc1cccc(Nc2ncnc3[nH]cc(C(=O)c4ccccc4)c23)c1 [phenyl(4-(m-tolylamino)-7H-pyrrolo[2,3-d]pyrimidin-5-yl)methanone] | 55400 | 
O=C(Nc1ccc(Nc2ncnc3[nH]cc(C(=O)c4ccccc4)c23)cc1)c1ccc(CN2CCOCC2)cc1 [4-(morpholin-4-ylmethyl)-N-(4-{[5-(phenylcarbonyl)-7H-pyrrolo[2,3-d]pyrimidin-4-yl]amino}phenyl)benzamide] | 10900 | 
CC(C)(C)NC(=O)Nc1cccc(Nc2ncnc3[nH]cc(C(=O)c4ccccc4)c23)c1 [drawing 274, 1-tert-butyl-3-(3-{[5-(phenylcarbonyl)-7H-pyrrolo[2,3-d]pyrimidin-4-yl]amino}phenyl)urea] | 6650 | 
NCc1ccc(Nc2ncnc3[nH]cc(C(=O)c4ccccc4)c23)cc1 [drawing 258, (4-{[4-(aminomethyl)phenyl]amino}-7H-pyrrolo[2,3-d]pyrimidin-5-yl)(phenyl)methanone] | 446 | 
O=C(c1ccccc1)c1c[nH]c2ncnc(Nc3cccc(CCO)c3)c12 [drawing 259, (4-{[3-(2-hydroxyethyl)phenyl]amino}-7H-pyrrolo[2,3-d]pyrimidin-5-yl)(phenyl)methanone] | 5140 | 
CC(=O)Nc1cccc(Nc2ncnc3[nH]cc(C(=O)c4ccccc4C)c23)c1 [drawing 243, N-(3-{[5-(2-methylbenzoyl)-7H-pyrrolo[2,3-d]pyrimidin-4-yl]amino}phenyl)acetamide] | 1260 | 

Further lines, results first:

IC50 (ACK1 (110-489)) [nM] | melting point [°C] | Compound
1270 |  | O=C(c1ccccc1)c1c[nH]c2ncnc(Nc3ccc(NC(=O)C4CCN(c5ccncc5)CC4)cc3)c12 [N-(4-{[5-(phenylcarbonyl)-7H-pyrrolo[2,3-d]pyrimidin-4-yl]amino}phenyl)-1-pyridin-4-ylpiperidine-4-carboxamide]
 | 210 to 212 | NCc1cccc(Nc2ncnc3[nH]cc(C(=O)c4ccccc4)c23)c1
 | 288 to 290 | CC(C)(C)OC(=O)Nc1cccc(Nc2ncnc3[nH]cc(C(=O)c4ccccc4)c23)c1
1430 |  | CC(=O)Nc1ccc(Nc2ncnc3[nH]cc(C(=O)c4ccccc4)c23)cc1 [drawing 241, N-{4-[(5-benzoyl-7H-pyrrolo[2,3-d]pyrimidin-4-yl)amino]phenyl}acetamide]
 | > 300 | COC(=O)c1cc(NC(=O)CNC(C)=O)cc(Nc2ncnc3[nH]cc(C(=O)c4ccccc4)c23)c1
69000 |  | COCc1ccc(CC(=O)Nc2ccc(Nc3ncnc4[nH]cc(C(=O)c5ccccc5)c34)cc2)cc1 [2-[4-(methoxymethyl)phenyl]-N-(4-{[5-(phenylcarbonyl)-7H-pyrrolo[2,3-d]pyrimidin-4-yl]amino}phenyl)acetamide]
 | > 300 | O=C(Nc1ccc(Nc2ncnc3[nH]cc(C(=O)c4ccccc4)c23)cc1)c1ccccc1
3770 |  | CCCC(=O)Nc1ccc(Nc2ncnc3[nH]cc(C(=O)c4ccccc4)c23)cc1 [N-{4-[(5-benzoyl-7H-pyrrolo[2,3-d]pyrimidin-4-yl)amino]phenyl}butanamide]
28900 |  | O=C(Nc1ccc(Nc2ncnc3[nH]cc(C(=O)c4ccccc4)c23)cc1)c1ccncc1Cl [3-chloro-N-(4-{[5-(phenylcarbonyl)-7H-pyrrolo[2,3-d]pyrimidin-4-yl]amino}phenyl)pyridine-4-carboxamide]
 | > 300 | O=C(c1ccccc1)c1c[nH]c2ncnc(Nc3cccc(CCO)c3)c12
2290 |  | CC(=O)Nc1cccc(Nc2ncnc3[nH]cc(C(=O)c4cccc(F)c4)c23)c1 [drawing 245, N-(3-{[5-(3-fluorobenzoyl)-7H-pyrrolo[2,3-d]pyrimidin-4-yl]amino}phenyl)acetamide]
28100 |  | O=C(Nc1ccccc1)Nc1cccc(Nc2ncnc3[nH]cc(C(=O)c4ccccc4)c23)c1 [drawing 260, 1-phenyl-3-(3-{[5-(phenylcarbonyl)-7H-pyrrolo[2,3-d]pyrimidin-4-yl]amino}phenyl)urea]
 | 170 to 173 | Cn1cc(C(=O)c2ccccc2)c2c(Nc3cccc(N)c3)ncnc21
240 |  | O=C(c1ccccc1)c1c[nH]c2ncnc(Nc3cccc(CO)c3)c12 [drawing 276, (4-{[3-(hydroxymethyl)phenyl]amino}-7H-pyrrolo[2,3-d]pyrimidin-5-yl)(phenyl)methanone]
 | > 300 | CC(=O)Nc1cccc(Nc2ncnc3[nH]cc(C(=O)c4cccc5ccccc45)c23)c1
415 |  | CN(C)CCC(=O)Nc1ccc(Nc2ncnc3[nH]cc(C(=O)c4ccccc4)c23)cc1 [N-(4-((5-benzoyl-7H-pyrrolo[2,3-d]pyrimidin-4-yl)amino)phenyl)-3-(dimethylamino)propanamide]
 | 256 to 258 | CC(C)(C)OC(=O)NCc1ccc(Nc2ncnc3[nH]cc(C(=O)c4ccccc4)c23)cc1
 | 273 to 275 | O=C(c1ccccc1)c1c[nH]c2ncnc(Nc3cccc(CO)c3)c12
 | > 300 | Nc1cccc(Nc2ncnc3[nH]cc(C(=O)c4ccccc4)c23)n1
31400 |  | O=C(Nc1ccc(N2CCCCC2)cc1)c1cccc(Nc2ncnc3[nH]cc(C(=O)c4ccccc4)c23)c1 [3-[(5-benzoyl-7H-pyrrolo[2,3-d]pyrimidin-4-yl)amino]-N-(4-piperidin-1-ylphenyl)benzamide]
4770 |  | CC(C)C(=O)Nc1ccc(Nc2ncnc3[nH]cc(C(=O)c4ccccc4)c23)cc1 [N-{4-[(5-benzoyl-7H-pyrrolo[2,3-d]pyrimidin-4-yl)amino]phenyl}-2-methylpropanamide]
646 |  | NC(=O)CCC(=O)Nc1ccc(Nc2ncnc3[nH]cc(C(=O)c4ccccc4)c23)cc1 [N-(4-{[5-(phenylcarbonyl)-7H-pyrrolo[2,3-d]pyrimidin-4-yl]amino}phenyl)butanediamide]
1810 |  | CCNC(=O)Nc1cccc(Nc2ncnc3[nH]cc(C(=O)c4ccccc4)c23)c1 [drawing 275, 1-ethyl-3-(3-{[5-(phenylcarbonyl)-7H-pyrrolo[2,3-d]pyrimidin-4-yl]amino}phenyl)urea]
1470 |  | O=C(Cc1cncc(Br)c1)Nc1cccc(Nc2ncnc3[nH]cc(C(=O)c4ccccc4)c23)c1 [drawing 251, N-{3-[(5-benzoyl-7H-pyrrolo[2,3-d]pyrimidin-4-yl)amino]phenyl}-2-(5-bromopyridin-3-yl)acetamide]
